Test results published in patent US6583090B1, “Hetaryl-substituted benzyl phenyl ethers, method for the production thereof, and their use for combating harmful fungi and animal pests” (priority 1998, dated 2003).

Test system: Puccinia recondita
Test: Curative activity against Puccinia recondita on wheat (leaf rust of wheat)
Assay type: in vivo, Puccinia recondita on wheat c.v. Frühgold
Conditions: 16 ppm, sprayed the day after infection, 7 days in greenhouse, untreated plants 80% infection
Protocol: The active ingredients, separately or together, were prepared as a 10% strength emulsion in a mixture of 70% by weight of cyclohexanone, 20% by weight of Nekanil® LN (Lutensol® AP6, wetting agent having emulsifying and dispersant action based on ethoxylated alkylphenols) and 10% by weight of Wettol® EM (nonionic emulsifier based on ethoxylated castor oil) and diluted with water to the desired concentration.
Leaves of potted wheat seedlings c.v. “Frühgold” were dusted with leaf rust spores (Puccinia recondite). The pots were then placed for 24 hours into a chamber with high atmospheric humidity (90 to 95%) at 20 to 25° C. During this time, the spores germinated, and the germinal tubes penetrated the leaf tissue. The next day, the infected plants were sprayed to runoff point with an aqueous spray liquor which had been prepared using a stock solution of 10% of active ingredient, 63% of cyclohexanone and 27% of emulsifier. After the spray coating had dried on, the test plants were cultivated for 7 days in a greenhouse at from 20 to 22° C. and a relative atmospheric humidity of 65 to 70%. The extent of rust development on the leaves was then determined.

Row | Compound | % infection (rust development on the leaves)
1 | CNC(=O)C(=NOC)c1ccccc1COc1ccc(-n2nc(C)cc2C)cc1Cl [I-11, N-methyl-2-{2-chloro-[4-(3,5-dimethyl)pyrazol-1-yl]phenoxymethylene}-phenylglyoxamide O-methyloxime] | no infection
2 | CON=C(C(=O)OC)c1ccccc1COc1ccc(-n2nc(C)cc2C)cc1Cl [I-12, methyl 2-{2-chloro-[4-(3,5-dimethyl)-pyrazol-1-yl]phenoxymethylene}phenylglyoxylate O-methyloxime] | no infection
